From EP2970215B1, “PYRROLIDINE DERIVATIVES, PHARMACEUTICAL COMPOSITIONS CONTAINING THEM, AND THEIR USE IN THERAPY” (AbbVie Deutschland GmbH & Co. KG, priority 2013, dated 2014)

Target: T1, human GlyT1c transporter (Homo sapiens, UniProt P48067)
T1 construct: expressed in transfected cells; host or cells: CHO cells (recombinant; line hGlyT1c_5_CHO is named for the uptake assay)
T1 sequence (P48067 1-706): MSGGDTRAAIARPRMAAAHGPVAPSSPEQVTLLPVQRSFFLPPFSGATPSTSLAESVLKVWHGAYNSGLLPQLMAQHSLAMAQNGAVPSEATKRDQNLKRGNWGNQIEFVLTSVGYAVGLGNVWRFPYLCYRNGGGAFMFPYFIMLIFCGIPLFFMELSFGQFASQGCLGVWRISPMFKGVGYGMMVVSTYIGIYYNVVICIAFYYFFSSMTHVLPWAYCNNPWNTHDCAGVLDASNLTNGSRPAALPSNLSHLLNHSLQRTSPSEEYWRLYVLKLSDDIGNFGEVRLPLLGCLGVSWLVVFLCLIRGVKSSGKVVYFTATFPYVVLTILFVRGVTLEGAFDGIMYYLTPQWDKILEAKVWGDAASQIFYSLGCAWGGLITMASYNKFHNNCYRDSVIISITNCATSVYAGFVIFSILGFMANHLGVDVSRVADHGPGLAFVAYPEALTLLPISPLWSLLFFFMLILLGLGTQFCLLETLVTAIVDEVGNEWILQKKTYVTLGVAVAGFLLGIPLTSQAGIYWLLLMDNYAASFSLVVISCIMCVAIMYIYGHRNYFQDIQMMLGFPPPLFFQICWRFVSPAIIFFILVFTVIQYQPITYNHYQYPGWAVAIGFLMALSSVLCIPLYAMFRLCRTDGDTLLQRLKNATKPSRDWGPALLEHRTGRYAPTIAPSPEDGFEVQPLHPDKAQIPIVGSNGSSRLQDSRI
Experiment: Radioligand binding assay using recombinant CHO cell membranes expressing human GlyT1
Details: radioligand binding to human GlyT1c transporter-expressing membranes
Description: 2. Radioligand binding assays using recombinant CHO cell membranes expressing human GlyT1: […]

Row | Compound | Ki [nM]
1 | Cn1cnc(S(=O)(=O)N2C[C@@H](NCc3ccc(Cl)cc3Cl)[C@H](c3ccc(F)cc3)C2)c1 (relative stereo) [Example 279, trans-N-(2,4-dichlorobenzyl)-4-(4-fluorophenyl)-1-[(1-methyl-1H-imidazol-4-yl)sulfonyl]pyrrolidin-3-amine] | ≤ 10000
2 | Cn1cnc(S(=O)(=O)N2C[C@@H](NCc3ccc(C(F)(F)F)cc3Cl)[C@H](c3ccccc3)C2)c1 (relative stereo) [Example 281, trans-N-[2-chloro-4-(trifluoromethyl)benzyl]-1-[(1-methyl-1H-imidazol-4-yl)sulfonyl]-4-phenylpyrrolidin-3-amine] | ≤ 10
3 | Cn1cnc(S(=O)(=O)N2C[C@@H](NCc3ccc(Cl)cc3Cl)[C@H](c3cccnc3)C2)c1 (relative stereo) [Example 286, trans-N-(2,4-dichlorobenzyl)-1-[(1-methyl-1H-imidazol-4-yl)sulfonyl]-4-(pyridin-3-yl)pyrrolidin-3-amine] | ≤ 10000
4 | Cn1cnc(S(=O)(=O)N2C[C@@H](C(=O)NCc3ccccc3)[C@H](c3ccc(F)cc3)C2)c1 (relative stereo) [Example 289, Trans-N-benzyl-4-(4-fluorophenyl)-1-[(1-methyl-1H-imidazol-4-yl)sulfonyl]pyrrolidine-3-carboxamide] | ≤ 1000
5 | Cn1cnc(S(=O)(=O)N2C[C@@H](CNc3ccccc3)[C@H](c3ccc(F)cc3)C2)c1 (relative stereo) [Example 290, N-({trans-4-(4-fluorophenyl)-1-[(1-methyl-1H-imidazol-4-yl)sulfonyl]pyrrolidin-3-yl}methyl)aniline] | ≤ 10000
6 | Cn1cnc(S(=O)(=O)N2C[C@@H](CNc3cc(Cl)cc(Cl)c3)[C@H](c3ccc(F)cc3)C2)c1 (relative stereo) [Example 292, 3,5-dichloro-N-({trans-4-(4-fluorophenyl)-1-[(1-methyl-1H-imidazol-4-yl)sulfonyl]pyrrolidin-3-yl}methyl)aniline] | ≤ 1000
7 | Cn1cnc(S(=O)(=O)N2C[C@@H](COc3ccc(C(F)(F)F)cc3Cl)[C@H](c3ccc(F)cc3)C2)c1 (relative stereo) [Example 294, 4-{[trans-3-{[2-chloro-4-(trifluoromethyl)phenoxy]methyl}-4-(4-fluorophenyl)pyrrolidin-1-yl]sulfonyl}-1-methyl-1H-imidazole] | ≤ 10
8 | Cn1cnc(S(=O)(=O)N2C[C@@H](Nc3ccc(Cl)c(OC(F)(F)F)c3)[C@H](c3ccccc3)C2)c1 (relative stereo) [Example 299, trans-N-[4-chloro-3-(trifluoromethoxy)phenyl]-1-[(1-methyl-1H-imidazol-4-yl)sulfonyl]-4-phenylpyrrolidin-3-amine] | ≤ 1000
9 | Cc1cccc(C(=O)[C@@H]2CN(S(=O)(=O)c3cn(C)cn3)C[C@H]2c2ccc(F)cc2)c1 (relative stereo) [Example 300, {trans-4-(4-fluorophenyl)-1-[(1-methyl-1H-imidazol-4-yl)sulfonyl]pyrrolidin-3-yl}(3-methylphenyl)methanone] | ≤ 1000
10 | Cn1cnc(S(=O)(=O)N2C[C@@H](C(=O)Nc3cccc(Cl)c3)[C@H](c3ccc(F)cc3)C2)c1 (relative stereo) [Example 304, trans-N-(3-chlorophenyl)-4-(4-fluorophenyl)-1-[(1-methyl-1H-imidazol-4-yl)sulfonyl]pyrrolidine-3-carboxamide] | ≤ 1000
11 | Cn1cnc(S(=O)(=O)N2C[C@@H](CNc3ccc(C(F)(F)F)c(Cl)c3)[C@H](c3ccc(F)cc3)C2)c1 (relative stereo) [Example 311, 3-chloro-N-({trans-4-(4-fluorophenyl)-1-[(1-methyl-1H-imidazol-4-yl)sulfonyl]pyrrolidin-3-yl}methyl)-4-(trifluoromethyl)aniline] | ≤ 1000
12 | Cn1cnc(S(=O)(=O)N2C[C@@H](CNc3ccc(F)c(C(F)(F)F)c3)[C@H](c3ccc(F)cc3)C2)c1 (relative stereo) [Example 313, 4-fluoro-N-({trans-4-(4-fluorophenyl)-1-[(1-methyl-1H-imidazol-4-yl)sulfonyl]pyrrolidin-3-yl}methyl)-3-(trifluoromethyl)aniline] | ≤ 1000

The remaining lines, values ahead:

Row | Ki [nM] | Compound
13 | ≤ 10 | Cn1cnc(S(=O)(=O)N2C[C@@H](NCc3ccc(Cl)cc3Cl)[C@H](c3ccccc3)C2)c1 (relative stereo) [Example 280, trans-N-(2,4-dichlorobenzyl)-1-[(1-methyl-1H-imidazol-4-yl)sulfonyl]-4-phenylpyrrolidin-3-amine]
14 | ≤ 100 | Cn1cnc(S(=O)(=O)N2C[C@@H](NCc3ccc(Cl)cc3Cl)[C@H](c3ccccc3F)C2)c1 (relative stereo) [Example 282, trans-N-(2,4-dichlorobenzyl)-4-(2-fluorophenyl)-1-[(1-methyl-1H-imidazol-4-yl)sulfonyl]pyrrolidin-3-amine]
15 | ≤ 100 | Cn1cnc(S(=O)(=O)N2C[C@@H](NCc3ccc(C(F)(F)F)cc3Cl)[C@H](c3ccccc3F)C2)c1 (relative stereo) [Example 283, trans-N-[2-chloro-4-(trifluoromethyl)benzyl] -4-(2-fluorophenyl)-1-[(1-methyl-1H-imidazol-4-yl)sulfonyl]pyrrolidin-3-amine]
16 | ≤ 100 | Cn1cnc(S(=O)(=O)N2C[C@@H](NCc3ccc(Cl)cc3Cl)[C@H](c3ccccc3Cl)C2)c1 (relative stereo) [Example 284, trans-4-(2-chlorophenyl)-N-(2,4-dichlorobenzyl)-1-[(1-methyl-1H-imidazol-4-yl)sulfonyl]pyrrolidin-3-amine]
17 | ≤ 100 | Cn1cnc(S(=O)(=O)N2C[C@@H](NCc3ccc(C(F)(F)F)cc3Cl)[C@H](c3ccccc3Cl)C2)c1 (relative stereo) [Example 285, trans-4-(2-chlorophenyl)-N-[2-chloro-4-(trifluoromethyl)benzyl]-1-[(1-methyl-1H-imidazol-4-yl)sulfonyl]pyrrolidin-3-amine]
18 | ≤ 100 | Cn1cnc(S(=O)(=O)N2C[C@@H](CNc3ccc(C(F)(F)F)cc3)[C@H](c3ccc(F)cc3)C2)c1 (relative stereo) [Example 291, N-({trans-4-(4-fluorophenyl)-1-[(1-methyl-1H-imidazol-4-yl)sulfonyl]pyrrolidin-3-yl}methyl)-4-(trifluoromethyl)aniline]
19 | ≤ 100 | Cn1cnc(S(=O)(=O)N2C[C@@H](COc3cccc(C(F)(F)F)c3)[C@H](c3ccc(F)cc3)C2)c1 (relative stereo) [Example 293, 4-{[trans-3-(4-fluorophenyl)-4-{[3-(trifluoromethyl)phenoxy]methyl}pyrrolidin-1-yl]sulfonyl}-1-methyl-1H-imidazole]
20 | ≤ 100 | Cn1cnc(S(=O)(=O)N2C[C@@H](COc3ccc(F)c(C(F)(F)F)c3)[C@H](c3ccc(F)cc3)C2)c1 (relative stereo) [Example 295, 4-{[trans-3-(4-fluorophenyl)-4-{[4-fluoro-3-(trifluoromethyl)phenoxy]methyl}pyrrolidin-1-yl]sulfonyl}-1-methyl-1H-imidazole]
21 | ≤ 100 | Cc1cccc(OC[C@@H]2CN(S(=O)(=O)c3cn(C)cn3)C[C@H]2c2ccc(F)cc2)c1 (relative stereo) [Example 296, 4-({trans-3-(4-fluorophenyl)-4-[(3-methylphenoxy)methyl]pyrrolidin-1-yl}sulfonyl)-1-methyl-1H-imidazole]
22 | ≤ 10 | Cn1cnc(S(=O)(=O)N2C[C@@H](C(=O)c3cccc(Cl)c3)[C@H](c3ccc(F)cc3)C2)c1 (relative stereo) [Example 297, (3-chlorophenyl){trans-4-(4-fluorophenyl)-1-[(1-methyl-1H-imidazol-4-yl)sulfonyl]pyrrolidin-3-yl}methanone]
23 | ≤ 10 | Cn1cnc(S(=O)(=O)N2C[C@@H](Nc3ccc(F)c(OC(F)(F)F)c3)[C@H](c3ccccc3)C2)c1 (relative stereo) [Example 298, trans-N-[4-fluoro-3-(trifluoromethoxy)phenyl]-1-[(1-methyl-1H-imidazol-4-yl)sulfonyl] -4-phenylpyrrolidin-3-amine]
24 | ≤ 100 | Cn1cnc(S(=O)(=O)N2C[C@@H](C(=O)c3cccc(C(F)(F)F)c3)[C@H](c3ccc(F)cc3)C2)c1 (relative stereo) [Example 302, {trans-4-(4-fluorophenyl)-1-[(1-methyl-1H-imidazol-4-yl)sulfonyl]pyrrolidin-3-yl}[3-(trifluoromethyl)phenyl]methanone]
25 | ≤ 100 | Cn1cnc(S(=O)(=O)N2C[C@@H](Nc3ccc(Cl)c(OC(F)(F)F)c3)[C@H](c3ccc(F)cc3)C2)c1 (relative stereo) [Example 306, trans-N-[4-chloro-3-(trifluoromethoxy)phenyl]-4-(4-fluorophenyl)-1-[(1-methyl-1H-imidazol-4-yl)sulfonyl]pyrrolidin-3-amine]
26 | ≤ 100 | Cn1cnc(S(=O)(=O)N2C[C@@H](NCc3ccc(Cl)cc3Cl)[C@H](c3ccccn3)C2)c1 (relative stereo) [Example 307, trans-N-(2,4-dichlorobenzyl)-1-[(1-methyl-1H-imidazol-4-yl)sulfonyl]-4-(pyridin-2-yl)pyrrolidin-3-amine]
